Experimental data published in patent US20120323009A1, “PRODUCTION METHOD OF REDUCED PYRROLOQUINOLINE QUINONE” (MITSUBISHI GAS CHEMICAL COMPANY, INC., priority 2010, published 2012).

Experiments:
[1] = Storage test of reduced PQQ (oxidation to oxidized PQQ); type: physicochemical
Method: In Examples and Comparative Examples, the UV measurements were performed on a HITACHI U-2000 Spectrophotometer.
In 500 g of water, […] of pyrroloquinoline quinone disodium was dissolved to a concentration of 0.01 mol/L. In 100 g of water, 3.51 g of L-ascorbic acid was dissolved to a concentration of 0.2 mol/L.
20 g of the pyrroloquinoline quinone disodium solution mentioned above having a concentration of 0.01 mol/L (pH 3.5) was mixed with 20 g of an L-ascorbic acid solution having a concentration of 0.2 mol/L at room temperature. The molar ratio of L-ascorbic acid is 20 with respect to pyrroloquinoline quinone. The pH of the solution was 2 as measured with a pH test strip. The mixed solution was allowed to react at room temperature overnight (pH 2). After the reaction, a solid of the reduced form was precipitated. Under this condition, it is believed that at least 15-fold moles of L-ascorbic acid is present, even allowing for the amounts consumed in the reduction reaction and in air oxidization.
The solid of the reduced form obtained in Example 6 was separated through centrifugation. The supernatant was removed, and the solid was washed with water. This process removed L-ascorbic acid. An aqueous sodium hydroxide solution was added thereto to adjust the value of pH to 7. All the reduced form was converted to the oxidized form in 30 minutes.
1 g of a pyrroloquinoline quinone disodium solution having a concentration of 0.01 mol/L (pH 3.5) was mixed with 1 g of an L-ascorbic acid solution having a concentration of 0.014 mol/L. When 1 g of this mixed solution was transferred to a 15-ml container and brought into contact with air, the solution included 14% of oxidized PQQ (pH 3). After this oxidized PQQ-containing reduced PQQ was left at 30° C. for one week, 18% of oxidized PQQ was included.

[2] = Non-patent document 3; cited from earlier work

O=C(O)c1cc(C(=O)O)c2c(n1)c(O)c(O)c1cc(C(=O)O)[nH]c12 [reduced PQQ, reduced pyrroloquinoline quinone]
time in which all the reduced form was converted to the oxidized form ([1]; Comparative Example 3: solid washed with water, L-ascorbic acid removed, pH adjusted to 7 with aqueous sodium hydroxide): 30 min | state of the reduced form after storage ([1]; Example 7: aqueous reaction solution, pH 2, at least 15-fold moles of L-ascorbic acid present, stored at room temperature for one week): maintained in the reduced state | oxidized PQQ included ([1]; Example 8: 0.01 mol/L PQQ disodium + 0.014 mol/L L-ascorbic acid mixed solution, pH 3, brought into contact with air, before storage): 14% | oxidized PQQ included ([1]; Example 8: same solution after being left at 30° C. for one week): 18% | antioxidative activity compared with ascorbic acid [2]: greater antioxidative activity than that exhibited by ascorbic acid | antioxidative activity compared with conventional PQQ [2]: extremely higher antioxidative activity than that exhibited by the conventional PQQ
